The values below are quoted from earlier work in patent US20230157586A1 (United States Government as Represented by the Department …, priority 2021, published 2023).

Numbering of substitutions follows the chain as printed.

In one data set the target is albumin (Homo sapiens, UniProt P02768). The settings on record: 37° C.; same for each subject.
Data set [1] deals with T1, corticosteroid binding globulin (CBG) (Homo sapiens, UniProt P08185).
T1 sequence (P08185 23-405): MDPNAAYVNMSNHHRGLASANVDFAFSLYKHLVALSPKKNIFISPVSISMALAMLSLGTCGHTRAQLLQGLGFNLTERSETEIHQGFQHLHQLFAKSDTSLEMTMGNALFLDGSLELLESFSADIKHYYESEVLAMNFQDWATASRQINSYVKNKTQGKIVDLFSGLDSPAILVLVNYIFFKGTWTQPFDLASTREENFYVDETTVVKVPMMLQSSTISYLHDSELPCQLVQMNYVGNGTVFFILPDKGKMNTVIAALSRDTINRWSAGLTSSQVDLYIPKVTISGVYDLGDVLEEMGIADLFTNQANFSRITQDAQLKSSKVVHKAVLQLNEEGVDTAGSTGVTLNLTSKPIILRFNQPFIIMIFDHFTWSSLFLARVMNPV
The settings on record: 37° C.; same for each subject.

For data set [2], the target named is T2, mutant CBG protein (GLy237Val substitution, SERPINA6) (Homo sapiens, UniProt P08185, G259V).
T2 sequence (P08185 23-405 G259V): T1 sequence (P08185 23-405) with G237V
The settings on record: previously reported; higher equilibrium dissociation constant KD.

albumin, sequence (P02768 25-609): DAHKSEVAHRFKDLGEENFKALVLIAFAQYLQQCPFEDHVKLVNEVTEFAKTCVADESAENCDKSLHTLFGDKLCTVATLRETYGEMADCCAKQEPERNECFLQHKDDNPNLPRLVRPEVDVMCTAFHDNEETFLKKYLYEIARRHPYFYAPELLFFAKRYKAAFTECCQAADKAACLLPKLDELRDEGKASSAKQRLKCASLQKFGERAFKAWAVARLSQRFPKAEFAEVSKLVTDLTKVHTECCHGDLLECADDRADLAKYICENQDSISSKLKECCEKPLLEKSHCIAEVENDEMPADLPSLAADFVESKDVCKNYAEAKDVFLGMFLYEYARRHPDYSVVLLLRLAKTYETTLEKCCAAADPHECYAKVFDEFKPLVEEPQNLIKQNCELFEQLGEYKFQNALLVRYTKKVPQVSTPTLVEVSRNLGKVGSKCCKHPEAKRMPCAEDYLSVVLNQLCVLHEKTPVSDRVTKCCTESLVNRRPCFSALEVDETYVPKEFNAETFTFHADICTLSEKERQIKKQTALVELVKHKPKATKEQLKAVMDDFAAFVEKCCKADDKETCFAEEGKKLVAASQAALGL

As for `C[C@]12CCC(=O)C=C1CC[C@@H]1[C@@H]2[C@@H](O)C[C@@]2(C)[C@H]1CC[C@]2(O)C(=O)CO` [cortisol], on albumin, the “κ1^A association rate constant (on-rate), albumin” value is 8950 M/s and the “κ−1^A dissociation rate constant (off-rate), albumin” value was 2.2 s⁻¹. Moreover, in data set [1], the “κ1^C association rate constant (on-rate), CBG” value was 3.62e+07 M/s and the “κ−1^C dissociation rate constant (off-rate), CBG” value was 0.88 s⁻¹. For the same compound, the “cortisol binding affinity of mutant CBG compared to wild type CBG protein” value in data set [2] is “markedly decreased cortisol binding affinity”.
